The structures appear in SMILES notation. pIC50: −log10 of the molar value. Structures can show the parent of a compound that is named as a salt. Some results are limits rather than exact numbers.

T1 sequence (Q99705 whole entry): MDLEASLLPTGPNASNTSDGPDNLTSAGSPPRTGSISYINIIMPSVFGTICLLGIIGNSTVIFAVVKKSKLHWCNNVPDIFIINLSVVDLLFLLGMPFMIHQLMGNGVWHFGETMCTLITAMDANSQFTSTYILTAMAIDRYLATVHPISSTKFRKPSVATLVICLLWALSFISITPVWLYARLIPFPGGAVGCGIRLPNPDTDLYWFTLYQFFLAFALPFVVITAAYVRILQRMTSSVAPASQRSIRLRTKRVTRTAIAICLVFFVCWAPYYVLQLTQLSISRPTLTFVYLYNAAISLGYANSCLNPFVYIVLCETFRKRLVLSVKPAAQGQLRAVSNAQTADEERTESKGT

One assay concerns the target T1, Melanin Concentrating Hormone Receptor 1 (MCHR1) (Homo sapiens, UniProt Q99705).
T1 construct: expressed in transfected cells
In words: MCHR1 Receptor Activation Assay (GTPγ^35S). Conditions: read-out: GTPγ^35S IC50. Format: biochemical.
In the case of `CCC1(O)CN(Cc2ccc(OC3CN(C(=O)c4nnc(-c5ccccc5)o4)C3)cc2)C1` [Example 71, (3-(4-((3-Ethyl-3-hydroxyazetidin-1-yl)methyl)phenoxy)azetidin-1-yl)(5-phenyl-1,3,4-oxadiazol-2-yl)methanone], the pIC50 (commonly the negative decadic logarithm of the IC50, by convention in mol/L) was 7.64.

In the case of `COc1ccc(-c2nnc(C(=O)N3CC(Oc4ccc(CN5CC(O)(C6CC6)C5)cc4)C3)o2)cc1` [Example 56, (3-(4-((3-Cyclopropyl-3-hydroxyazetidin-1-yl)methyl)phenoxy)azetidin-1-yl)(5-(4-methoxyphenyl)-1,3,4-oxadiazol-2-yl)methanone], the pIC50 was 7.89.

Turning to `Cc1ccc(-c2nnc(C(=O)N3CC(Oc4ccc(CN(C)C)c(C)c4)C3)o2)cc1` [Example 22, (3-(4-((Dimethylamino)methyl)-3-methylphenoxy)azetidin-1-yl)(5-p-tolyl-1,3,4-oxadiazol-2-yl)methanone], the pIC50 is 7.60.

`CCC1(CO)CCN(Cc2ccc(OC3CN(C(=O)c4nnc(-c5ccc(OC)cc5)o4)C3)cc2)CC1` [Example 92, (3-(4-((4-Ethyl-4-(hydroxymethyl)piperidin-1-yl)methyl)phenoxy)azetidin-1-yl)(5-(4-methoxyphenyl)-1,3,4-oxadiazol-2-yl)methanone]: the pIC50 was 7.82.

Consider `COc1ccc(-c2nnc(C(=O)N3CC(Oc4ccc(CN5CCCC5)c(F)c4)C3)o2)cc1` [Example 32, (3-(3-Fluoro-4-(pyrrolidin-1-ylmethyl)phenoxy)azetidin-1-yl)(5-(4-methoxyphenyl)-1,3,4-oxadiazol-2-yl)methanone], for which the pIC50 was 7.82.

As for `COc1ccc(-c2nnc(C(=O)N3CC(Oc4ccc(CN(C)C)c(F)c4F)C3)o2)cc1` [Example 40, (3-(4-((Dimethylamino)methyl)-2,3-difluorophenoxy)azetidin-1-yl)(5-(4-methoxyphenyl)-1,3,4-oxadiazol-2-yl)methanone], the pIC50 is 7.57.

In the case of `COc1ccc(-c2nnc(C(=O)N3CC(Oc4ccc(CN5CC(OC)C5)cc4)C3)o2)cc1` [Example 55, (3-(4-((3-Methoxyazetidin-1-yl)methyl)phenoxy)azetidin-1-yl)(5-(4-methoxyphenyl)-1,3,4-oxadiazol-2-yl)methanone], the pIC50 was 7.66.

For `Cc1cc(CN2CCCC2)ccc1OC1CN(C(=O)c2nnc(-c3ccc(Cl)cc3)o2)C1` [Example 19, (5-(4-Chlorophenyl)-1,3,4-oxadiazol-2-yl)(3-(2-methyl-4-(pyrrolidin-1-ylmethyl)phenoxy)azetidin-1-yl)methanone], the pIC50 was 8.19.

Take `CN(C)Cc1ccc(OC2CN(C(=O)c3nnc(-c4ccccc4)o3)C2)cc1` [Example 33, (3-(4-((Dimethylamino)methyl)phenoxy)azetidin-1-yl)(5-phenyl-1,3,4-oxadiazol-2-yl)methanone]: the pIC50 is 7.47.

As to `O=C(c1nnc(-c2ccccc2)o1)N1CC(Oc2ccc(CN3CC(C(F)F)C3)cc2)C1` [Example 68, (3-(4-((3-(Difluoromethyl)azetidin-1-yl)methyl)phenoxy)azetidin-1-yl)(5-phenyl-1,3,4-oxadiazol-2-yl)methanone], the negative logarithm of the IC50 (pIC50) was 7.68.

For the molecule `COCCN(C)Cc1ccc(SC2CN(C(=O)c3nnc(-c4ccccc4)o3)C2)cc1` [Example 61, (3-(4-(((2-Methoxyethyl)(methyl)amino)methyl)phenylthio)azetidin-1-yl)(5-phenyl-1,3,4-oxadiazol-2-yl)methanone hydrochloride], the pIC50 is 7.66.

As for `COc1ccc(-c2nnc(C(=O)N3CC(Oc4ccc(CN(C)C)c(F)c4)C3)o2)cc1` [Example 27, (3-(4-((Dimethylamino)methyl)-3-fluorophenoxy)azetidin-1-yl)(5-(4-methoxyphenyl)-1,3,4-oxadiazol-2-yl)methanone], the pIC50 was 7.68.

For the molecule `CSc1ccc(-c2nnc(C(=O)N3CC(Oc4ccc(CN(C)C)cc4)C3)o2)cc1` [Example 34, (3-(4-((Dimethylamino)methyl)phenoxy)azetidin-1-yl)(5-(4-(methylthio)phenyl)-1,3,4-oxadiazol-2-yl)methanone], the pIC50 is 7.74.

Consider `CCC1(O)CN(Cc2ccc(OC3CN(C(=O)c4nnc(-c5ccc(OC)cc5)o4)C3)cc2)C1` [Example 70, (3-(4-((3-Ethyl-3-hydroxyazetidin-1-yl)methyl)phenoxy)azetidin-1-yl)(5-(4-methoxyphenyl)-1,3,4-oxadiazol-2-yl)methanone], for which the pIC50 is 7.70.

`COc1ccc(-c2nnc(C(=O)N3CC(Oc4ccc(CN5CCOCC5)cc4C)C3)o2)cc1` [Example 12, (5-(4-Methoxyphenyl)-1,3,4-oxadiazol-2-yl)(3-(2-methyl-4-(morpholinomethyl)-phenoxy)azetidin-1-yl)methanone]: the pIC50 is 7.52.

As for `CC1(O)CN(Cc2ccc(OC3CN(C(=O)c4nnc(-c5ccccc5)o4)C3)cc2)C1` [Example 77, (3-(4-((3-Hydroxy-3-methylazetidin-1-yl)methyl)phenoxy)azetidin-1-yl)(5-phenyl-1,3,4-oxadiazol-2-yl)methanone], the pIC50 was 7.40.

For the molecule `CN(C)Cc1ccc(OC2CN(C(=O)c3nnc(-c4ccc(C(F)(F)F)cc4)o3)C2)cc1` [Example 35, (3-(4-((dimethylamino)methyl)phenoxy)azetidin-1-yl)(5-(4-(trifluoromethyl)phenyl)-1,3,4-oxadiazol-2-yl)methanone], the pIC50 was 7.72.

`CC1(O)CCCN(Cc2ccc(OC3CN(C(=O)c4nnc(-c5ccccc5)o4)C3)cc2)CC1` (centres unmarked) [Example 87, (3-(4-((4-hydroxy-4-methylazepan-1-yl)methyl)phenoxy)azetidin-1-yl)(5-phenyl-1,3,4-oxadiazol-2-yl)methanone]: the pIC50 is 8.09.

As to `Cc1ccc(-c2nnc(C(=O)N3CC(Oc4ccc(CN5CCCC5)cc4)C3)o2)cc1` [Example 6, (3-(4-(Pyrrolidin-1-ylmethyl)phenoxy)azetidin-1-yl)(5-p-tolyl-1,3,4-oxadiazol-2-yl)methanone hydrochloride], the pIC50 was 7.72.

With `CCC1(O)CN(Cc2ccc(OC3CN(C(=O)c4nnc(-c5ccccc5)o4)C3)cc2C)C1` [Example 75, (3-(4-((3-Ethyl-3-hydroxyazetidin-1-yl)methyl)-3-methylphenoxy)azetidin-1-yl)(5-phenyl-1,3,4-oxadiazol-2-yl)methanone], the pIC50 was 7.77.

In the case of `CN(Cc1ccc(SC2CN(C(=O)c3nnc(-c4ccccc4)o3)C2)cc1)CC1CCOC1` (centres unmarked) [Example 65, (3-(4-((Methyl((tetrahydrofuran-3-yl)methyl)amino)methyl)phenylthio)azetidin-1-yl)(5-phenyl-1,3,4-oxadiazol-2-yl)methanone], the pIC50 was 7.70.

As for `O=C(c1nnc(-c2ccccc2)o1)N1CC(Oc2ccc(CN3CCC3)cc2)C1` [Example 42, (3-(4-(azetidin-1-ylmethyl)phenoxy)azetidin-1-yl)(5-phenyl-1,3,4-oxadiazol-2-yl)methanone], the pIC50 was 7.59.

Turning to `CN(C)Cc1ccc(OC2CN(C(=O)c3nnc(-c4ccc(OC(F)F)cc4)o3)C2)cc1` [Example 37, (5-(4-(Difluoromethoxy)phenyl)-1,3,4-oxadiazol-2-yl)(3-(4-((dimethylamino)methyl)phenoxy)azetidin-1-yl)methanone], the pIC50 was 7.77.

Take `CN(C)Cc1ccc(OC2CN(C(=O)c3nnc(-c4ccc(OC(F)F)cc4)o3)C2)cc1F` [Example 51, (5-(4-(Difluoromethoxy)phenyl)-1,3,4-oxadiazol-2-yl)(3-(4-((dimethylamino)methyl)-3-fluorophenoxy)azetidin-1-yl)methanone]: the pIC50 was 7.72.

As for `CN(C)Cc1ccc(OC2CN(C(=O)c3nnc(-c4ccc(Cl)cc4)o3)C2)cc1` [Example 36, (5-(4-Chlorophenyl)-1,3,4-oxadiazol-2-yl)(3-(4-((dimethylamino)methyl)phenoxy)azetidin-1-yl)methanone], the pIC50 is 7.89.

Consider `COc1ccc(-c2nnc(C(=O)N3CC(Sc4ccc(CN5CCCC5)cc4)C3)o2)cc1` [Example 59, (5-(4-Methoxyphenyl)-1,3,4-oxadiazol-2-yl)(3-(4-(pyrrolidin-1-ylmethyl)phenylthio)azetidin-1-yl)methanone], for which the pIC50 is 7.96.

`COc1ccc(-c2nnc(C(=O)N3CC(Oc4ccc(CN5CCC(C)(CO)C5)cc4)C3)o2)cc1` (centres unmarked) [Example 84, (3-(4-((3-(hydroxymethyl)-3-methylpyrrolidin-1-yl)methyl)phenoxy)azetidin-1-yl)(5-(4-methoxyphenyl)-1,3,4-oxadiazol-2-yl)methanone]: the pIC50 is 7.77.

Take `Cc1ccc(-c2nnc(C(=O)N3CC(Oc4ccc(CN(C)C)c(F)c4)C3)o2)cc1` [Example 28, (3-(4-((Dimethylamino)methyl)-3-fluorophenoxy)azetidin-1-yl)(5-p-tolyl-1,3,4-oxadiazol-2-yl)methanone]: the pIC50 is 7.57.

`O=C(c1nnc(-c2ccccc2)o1)N1CC(Oc2ccc(CN3CCCC3)c(C(F)(F)F)c2)C1` [Example 45, (5-Phenyl-1,3,4-oxadiazol-2-yl)(3-(4-(pyrrolidin-1-ylmethyl)-3-(trifluoromethyl)phenoxy)azetidin-1-yl)methanone]: the pIC50 is 7.80.

The assay is the same for the next values; noted with them: separated enantiomers of Example 84 (chiral chromatography fractions); assay not given; read-out: IC50.
Regarding `COc1ccc(-c2nnc(C(=O)N3CC(Oc4ccc(CN5CCC(C)(CO)C5)cc4)C3)o2)cc1` (single isomer, unassigned; (+)) [Example E2, (+)(3-(4-((3-(hydroxymethyl)-3-methylpyrrolidin-1-yl)methyl)phenoxy)azetidin-1-yl)(5-(4-methoxyphenyl)-1,3,4-oxadiazol-2-yl)methanone], the pIC50 is 7.62.

The assay is the same for the next values; noted with them: when tested in the above referenced assays (MCH binding assay; MCHR1 receptor activation assay); read-out: IC50 value.
For the molecule `O=C(c1nnc(-c2ccccc2)o1)N1CC(Oc2ccc(CNC3COC3)cc2)C1` [(3-(4-((oxetan-3-ylamino)methyl)phenoxy)azetidin-1-yl)(5-sphenyl-1,3,4-oxadiazol-2-yl)methanone], the pIC50 is at most 7.00.

Take `COc1ccc(-c2nnc(C(=O)N3CC(Oc4ccc(CN(C)C)c(OC(F)F)c4)C3)o2)cc1` [(3-(3-(difluoromethoxy)-4-((dimethylamino)methyl)phenoxy)azetidin-1-yl)(5-(4-methoxyphenyl)-1,3,4-oxadiazol-2-yl)methanone]: the pIC50 is at most 7.00.

The values above are taken from patent publication US8546375B2, “(3-(4-(aminomethyl)phenoxy or phenylthio)azetidin-1-yl)(5-phenyl-1,3,4-oxadiazol-2-yl)methanone compounds” (AstraZeneca AB, priority 2010, dated 2013).
